Drawing on ChEMBL document CHEMBL6121037, “Screening, Discovery, and Optimization of the Natural Antitubercular Chlorflavonin from a Marine-Derived Fungal Library” (J Nat Prod, 2025), this text covers Activity and MIC90 for 40 compounds.

Activity calls are given as the source filed them. The calls are words filed in the database; no cut-off is given here.

In experiment [1] the test system is A549. Nature of the experiment: Cytotoxicity against human A549 cells at 20 uM by MTT assay. Format: functional, cell-based. A general note: Tetrazolium dyes change colour on reduction, which living cells bring about.
Experiment [2] relates to Staphylococcus aureus. Nature of the experiment: Antibacterial activity against Staphylococcus aureus assessed as reduction in microbial growth at 25 ug/ml incubated for 24 hrs. The format is functional, organism-based. Conditions: dose 25.0 µg/ml.
Experiment [3] deals with Mycobacterium tuberculosis. Kind of experiment: Antitubercular activity against Mycobacterium tuberculosis H37Ra assessed as reduction in microbial growth. The format is functional.
For experiment [4], the system named is Mycobacterium marinum. Nature of the experiment: Antibacterial activity against Mycobacterium marinum assessed as reduction in microbial growth at 100 ug/ml. The format is functional, organism-based. To be noted: dose 100.0 µg/ml.

As for `COc1cc(O)c2c(=O)c(OC)c(-c3cccc(Cl)c3OC(=O)c3cccc(Br)c3)oc2c1OC`, the result in experiment [1], in experiment [2] and in experiment [4] was inactive. In addition, in experiment [3], the MIC90 was 1.8 µM.
On to `COc1cc(O)c2c(=O)c(OC)c(-c3cccc(Cl)c3OC(=O)/C=C/c3ccccc3)oc2c1OC`, for which the result in experiment [1], in experiment [2] and in experiment [4] was inactive. Moreover, in experiment [3], the MIC90 was determined as 2 µM.
With `COc1cc(O)c2c(=O)c(OC)c(-c3cccc(Cl)c3OC(=O)/C=C/c3ccc(C)cc3)oc2c1OC`, the outcome in experiment [1], in experiment [2] and in experiment [4] was inactive. Moreover, the MIC90 in experiment [3] amounted to 1.9 µM.
For `COc1c(Br)c(O)c2c(=O)c(OC)c(-c3cc(Br)cc(Cl)c3O)oc2c1OC`, the outcome in experiment [1], in experiment [2] and in experiment [4] was inactive.
For the compound `COc1cc(O)c2c(=O)c(OC)c(-c3cccc(Cl)c3OC(=O)c3cccnc3)oc2c1OC`, the result in experiment [1], in experiment [2] and in experiment [4] was inactive. In addition, the MIC90 in experiment [3] came to 2.1 µM.
Regarding `COc1cc(O)c2c(=O)c(OC)c(-c3cccc(Cl)c3OCc3ccc(C(C)(C)C)cc3)oc2c1OC`, the outcome in experiment [1], in experiment [2] and in experiment [4] was inactive.
For `COc1cc(OC(=O)c2cccs2)c2c(=O)c(OC)c(-c3cccc(Cl)c3OC(=O)c3cccs3)oc2c1OC`, the outcome in experiment [1], in experiment [2] and in experiment [4] was inactive.
Turning to `COc1cc(O)c2c(=O)c(OC)c(-c3cccc(Cl)c3OC(=O)c3ccccc3)oc2c1OC`, the result in experiment [1], in experiment [2] and in experiment [4] was inactive. The MIC90 in experiment [3] was determined as 1 µM.
Turning to `COc1cc(O)c2c(=O)c(OC)c(-c3cccc(Cl)c3OCCc3cccc(F)c3)oc2c1OC`, the outcome in experiment [1], in experiment [2] and in experiment [4] was inactive.
`COc1cc(O)c2c(=O)c(OC)c(-c3cccc(Cl)c3OCc3ccc(F)cc3)oc2c1OC`: the result in experiment [1], in experiment [2] and in experiment [4] was inactive.
`COc1cc(O)c2c(=O)c(OC)c(-c3cccc(Cl)c3OC(=O)/C=C/c3ccccc3Cl)oc2c1OC`: the result in experiment [1], in experiment [2] and in experiment [4] was inactive. Besides, the MIC90 in experiment [3] was found to be 0.7 µM.
As to `COc1cc(OC(=O)c2cccc(F)c2)c2c(=O)c(OC)c(-c3cccc(Cl)c3OC(=O)c3cccc(F)c3)oc2c1OC`, the outcome in experiment [1], in experiment [2] and in experiment [4] was inactive. Also, the MIC90 in experiment [3] came out at 1.6 µM.
Turning to `COc1cc(O)c2c(=O)c(OC)c(-c3cccc(Cl)c3O)oc2c1OC`, the outcome in experiment [1], in experiment [2] and in experiment [4] was inactive. For the same compound, the MIC90 in experiment [3] was 2.6 µM.
In the case of `COc1cc(O)c2c(=O)c(OC)c(-c3cccc(Cl)c3OC(=O)c3cccc(C)c3)oc2c1OC`, the result in experiment [1], in experiment [2] and in experiment [4] was inactive.
As to `COc1cc(OCc2cccc(F)c2)c2c(=O)c(OC)c(-c3cccc(Cl)c3OCc3cccc(F)c3)oc2c1OC`, the outcome in experiment [1], in experiment [2] and in experiment [4] was inactive.
Regarding `COc1cc(O)c2c(=O)c(OC)c(-c3cccc(Cl)c3OC(=O)/C=C/c3cccnc3)oc2c1OC`, the result in experiment [1], in experiment [2] and in experiment [4] was inactive. In addition, the MIC90 in experiment [3] worked out at 2 µM.
Consider `COc1cc(OC(=O)c2cccc(N(C)C)c2)c2c(=O)c(OC)c(-c3cccc(Cl)c3OC(=O)c3cccc(N(C)C)c3)oc2c1OC`, for which the outcome in experiment [1], in experiment [2] and in experiment [4] was inactive.
Turning to `COc1cc(C(=O)Oc2c(Cl)cccc2-c2oc3c(OC)c(OC)cc(O)c3c(=O)c2OC)cc(OC)c1OC`, the outcome in experiment [1], in experiment [2] and in experiment [4] was inactive. Moreover, the MIC90 in experiment [3] was determined as 1.8 µM.
Take `COc1cc(C(=O)Oc2c(Cl)cccc2-c2oc3c(OC)c(OC)cc(OC(=O)c4cc(OC)c(OC)c(OC)c4)c3c(=O)c2OC)cc(OC)c1OC`: the result in experiment [1], in experiment [2] and in experiment [4] was inactive.
As for `COc1cc(O)c2c(=O)c(OC)c(-c3cccc(Cl)c3OC(=O)/C=C/c3cccc(Cl)c3)oc2c1OC`, the outcome in experiment [1], in experiment [2] and in experiment [4] was inactive. The MIC90 in experiment [3] came to 0.9 µM.
As to `COc1cc(O)c2c(=O)c(OC)c(-c3cccc(Cl)c3OC(=O)c3cccc(Cl)c3)oc2c1OC`, the outcome in experiment [1], in experiment [2] and in experiment [4] was inactive. The MIC90 in experiment [3] was found to be 1.9 µM.
As for `COc1cc(O)c2c(=O)c(OC)c(-c3cccc(Cl)c3OC(=O)/C=C/c3ccc(F)c(F)c3)oc2c1OC`, the result in experiment [1], in experiment [2] and in experiment [4] was inactive.
Consider `COc1ccc(C(=O)Oc2c(Cl)cccc2-c2oc3c(OC)c(OC)cc(OC(=O)c4ccc(OC)cc4)c3c(=O)c2OC)cc1`, for which the result in experiment [1], in experiment [2] and in experiment [4] was inactive.
For `COc1cc(OC(=O)/C=C/c2ccc(C(F)(F)F)cc2)c2c(=O)c(OC)c(-c3cccc(Cl)c3OC(=O)/C=C/c3ccc(C(F)(F)F)cc3)oc2c1OC`, the outcome in experiment [1], in experiment [2] and in experiment [4] was inactive.
As to `COc1cc(OCc2ccc(C(C)(C)C)cc2)c2c(=O)c(OC)c(-c3cccc(Cl)c3OCc3ccc(C(C)(C)C)cc3)oc2c1OC`, the outcome in experiment [1], in experiment [2] and in experiment [4] was inactive.
For the compound `COc1cc(O)c2c(=O)c(OC)c(-c3cccc(Cl)c3OC(=O)c3cccc(N)c3)oc2c1OC`, the result in experiment [1], in experiment [2] and in experiment [4] was inactive. Further, the MIC90 in experiment [3] came out at 2 µM.
Take `COc1cc(O)c2c(=O)c(OC)c(-c3cccc(Cl)c3OCc3cccc(C)c3)oc2c1OC`: the result in experiment [1], in experiment [2] and in experiment [4] was inactive.
As to `NNC(=O)c1ccncc1` [ISONIAZID], the result in experiment [2] and in experiment [4] was inactive. Further, the MIC90 in experiment [3] came out at 0.3 µM.
Turning to `COc1ccc(/C=C/C(=O)Oc2c(Cl)cccc2-c2oc3c(OC)c(OC)cc(O)c3c(=O)c2OC)cc1`, the result in experiment [1], in experiment [2] and in experiment [4] was inactive. In experiment [3], the MIC90 stood at 1.9 µM.
For the compound `COc1cc(O)c2c(=O)c(OC)c(-c3cc(Br)cc(Cl)c3O)oc2c1OC`, the outcome in experiment [1], in experiment [2] and in experiment [4] was inactive.
For the compound `COc1ccc(C(=O)Oc2c(Cl)cccc2-c2oc3c(OC)c(OC)cc(O)c3c(=O)c2OC)cc1`, the outcome in experiment [1], in experiment [2] and in experiment [4] was inactive. The MIC90 in experiment [3] is 2 µM.
Take `COc1cc(OCc2ccc(C(F)(F)F)cc2)c2c(=O)c(OC)c(-c3cccc(Cl)c3OCc3ccc(C(F)(F)F)cc3)oc2c1OC`: the result in experiment [1], in experiment [2] and in experiment [4] was inactive.
In the case of `COc1cc(OC(=O)c2ccccc2)c2c(=O)c(OC)c(-c3cccc(Cl)c3OC(=O)c3ccccc3)oc2c1OC`, the outcome in experiment [1], in experiment [2] and in experiment [4] was inactive. The MIC90 in experiment [3] is 1.7 µM.
As for `COc1cc(O)c2c(=O)c(OC)c(-c3cccc(Cl)c3OC(=O)N(C)C)oc2c1OC`, the outcome in experiment [1], in experiment [2] and in experiment [4] was inactive.
Take `COc1cc(O)c2c(=O)c(OC)c(-c3cccc(Cl)c3OC(=O)/C=C/c3ccsc3)oc2c1OC`: the result in experiment [1], in experiment [2] and in experiment [4] was inactive. The MIC90 in experiment [3] is 1.9 µM.
For `COc1cc(O)c2c(=O)c(OC)c(-c3ccccc3O)oc2c1OC`, the outcome in experiment [1], in experiment [2] and in experiment [4] was inactive.
`COc1cc(OC(=O)c2cccc(Cl)c2)c2c(=O)c(OC)c(-c3cccc(Cl)c3OC(=O)c3cccc(Cl)c3)oc2c1OC`: the result in experiment [1], in experiment [2] and in experiment [4] was inactive.
On to `COc1cc(O)c2c(=O)c(OC)c(-c3cccc(Br)c3O)oc2c1OC`, for which, in experiment [3], the MIC90 stood at 1.2 µM.
Turning to `COc1cc(O)c2c(=O)c(OC)c(-c3cccc(Cl)c3OC(=O)/C=C/c3ccc(N(C)C)cc3)oc2c1OC`, the outcome in experiment [1], in experiment [2] and in experiment [4] was inactive.
Turning to `COc1cc(OCc2cccc(C)c2)c2c(=O)c(OC)c(-c3cccc(Cl)c3OCc3cccc(C)c3)oc2c1OC`, the result in experiment [1], in experiment [2] and in experiment [4] was inactive.

Usually MIC90 stands for the lowest concentration that inhibits either 90% of growth or 90% of the strains tested, depending on the study.
